Broadly, the Emax is the greatest response seen or fitted, relative to the assay's reference. As a reminder, the IC50 is the concentration that gives 50% inhibition.

The record followed here is patent US8658677B2, “Pyridyl-2-methylamino compounds, compositions and uses thereof” (Aria Neurosciences Inc., priority 2011, dated 2014).

The test system of one series is APP mRNA. As to the kind of experiment: APP mRNA level in 751APPSW CHO cells. The series is classed as cell-based, human. As to the method:
D. APP was immunoprecipitated with 22C11 mAb against its N-terminus. Representative radiographs (B) and densitometric results averaged from three independent experiments are shown (A). […] Two sets of experiments were conducted using either actin or GAPDH as housekeeping genes.

For another series, the system named is APP. As to the kind of experiment: APP, C99, C83 and sAPP levels in 751APPSW CHO cells (immunoblot, immunostaining). The series is classed as cell-based, human.
The subject of series [1] is SK-N-SH human neuroblastoma cells. Put plainly: Toxicity by MTT cell viability and LDH release assays. The series is classed as cell-based. As to the method:
The effect of 0.01-100 μmol/L concentrations of investigational compounds was tested on the viability of the N2a murine neuroblastoma cell line (American Type Culture Collection, Manassas, Va.). N2a cells were grown in Eagle's minimal essential medium with the addition of 10% fetal bovine serum, streptomycin and gentomycin (Sigma, St. Louis, Mo.), harvested with 2% trypsin and plated at 10,000 cells/100 μL per well in flatbottom, 96-well microtiter plates. The cells were allowed to attach to the plate overnight in an incubator (37° C., 5% CO2) and in the following morning stocks of investigational compounds (50 mmol/L stock diluted in DMSO) were added to cells to achieve the final concentration 0.01-100 μmol/L. Adequate amounts of DMSO (Dimethyl sulfoxide, Sigma, St. Louis, Mo.) were added to control cells. Cells were grown in the presence of investigational compounds for 48 h and then their viability was assessed using a metabolic assay, which is based on cleavage of the yellow tetrazolium salt (MTT) to purple formazan crystals by viable cells. The MTT assay (Roche Molecular Biochemicals, Indianapolis, Ind.) was performed according to the manufacturer's instructions. The results from cell culture neurotoxicity studies were evaluated by one-way analysis of variance, followed by a Dunnett's test as a post hoc analysis.
As shown in FIG. 2 (MTT assay), the compounds were tested for toxicity in SK-N-SH human neuroblastoma cells using MTT cell viability and LDH release (membrane integrity) assays.
A general note: Release of lactate dehydrogenase indicates damage to the cell membrane.

For a further series, the system named is Aβ40. Put plainly: Secretion of Aβ40 by 751APPSW CHO cells (sandwich ELISA). The series is classed as cell-based. The note with it: 48 hr; for Emax: read-out: EMAX of Aβ40 production inhibition; for IC50: read-out: IC50% of Aβ40 production. As to the method: (§1) In addition to studying the effect of ARN4261 and ARN2966 on Aβ oligomerization and fibrillization, we have explored their properties in respect to the modulation of Aβ production using CHO clones stably transfected with WT human APP751 and double Swedish APP751 mutant (KM670/671NL). The results in FIGS. 3(A) and 3(B) show inhibitory effect of ARN4261 and ARN2966 on secretion of Aβ40 and Aβ42 by 751APPSW CHO cells exposed to ARN compounds for 48 hr. Values are expressed as % of Aβ40 and Aβ42 levels in conditioned media (CM) of untreated cells. FIG. 3(C) Concentrations of Aβ40 and Aβ42 in 751APPSWCHO cell CM under increasing concentrations of ARN2966. 751APPSWCHO cells secrete Aβ40 and Aβ42 in proportions 9:1, akin to the proportions of Aβ peptides produced by neurons. […] Aβ40 and Aβ42 levels were determined using sandwich ELISA where C-terminal specific anti Aβ40 and Aβ42 mAbs were used as capture Abs and biotinylated 4G8 as the detection Ab. […] We also confirmed that ARN2966 inhibited secretion of Aβ by primary neuronal cultures derived from Tg2576 AD Tg mice.

The test system of the next series is Aβ42. Put plainly: Secretion of Aβ42 by 751APPSW CHO cells (sandwich ELISA). The series is classed as cell-based. Particulars: 48 hr; for Emax: read-out: EMAX of Aβ42 production inhibition; for IC50: read-out: IC50% of Aβ42 production. The method, then: as §1
(An ELISA detects its analyte on a solid surface through an enzyme-linked reagent.)

“Also recorded” adds a separate entry of the source. Where only a bound is given, the exact number is not on record here.

With `Oc1ccccc1N=Cc1ccccn1` [ARN4261, 2-(Pyridin-2-ylmethyleneamino)-phenol], the “APP mRNA level” value in the series with APP mRNA is “lack of substantial effect”. Besides, the “level of APP FL, C99 and C83 in cell lysates” value with APP (751APPSW CHO clone) is “reduce the level of full length APP (APP FL) and both C99 and C83 APP stubs; also recorded: reduced levels of full length APP (APP FL) and C99 and C83 APP stubs”. The toxicity result in series [1] (0.1-100 μM) is “no toxicity”. Also, in the series with Aβ40, the maximal effect (Emax) was 97.4 ± 0.25% and the IC50 stood at 0.82 µM. Besides, in the series with Aβ42, the Emax stood at 98.9 ± 0.4% and the IC50 is 6.54 µM.
As for `Oc1ccccc1NCc1ccccn1` [ARN2966, 2-[(pyridine-2-ylmethyl)-amino]-phenol], in the series with APP mRNA, the “APP mRNA level” value is “No change; also recorded: lack of substantial effect”. Besides, in the series on APP (751APPSW CHO cells), the “anti-APP immunostaining with 22C11 mAb” value is listed as “reduced without evidence of staining redistribution; also recorded: Reduced anti-APP staining”. Moreover, in the series on APP (751APPSW CHO clone), the “concentrations at which reduction in APP FL level is seen” value is at least 10 µM; the “level of APP FL, C99 and C83 in cell lysates” value is “reduce the level of full length APP (APP FL) and both C99 and C83 APP stubs; also recorded: reduced levels of full length APP (APP FL) and C99 and C83 APP stubs”; the “sAPP (sAPPα and total sAPP stub) in conditioned media” value was “reduced levels”. For the same compound, in the series with APP (751APPSW CHO clone, increasing concentration), the “level of β-actin” value is listed as “no apparent change”. For the same compound, in series [1] (test not specified), the toxicity entry is reported as “not toxic”. Moreover, in the series on Aβ40, the Emax is 97 ± 0.3% and the IC50 amounted to 0.81 µM. In the series with Aβ42, the maximal response (Emax) came to 84.5% and the IC50 worked out at 5.53 µM.
